# Source: PMC5367033, “Inhibitors of BRD4 Protein from a Marine-Derived Fungus Alternaria sp. NH-F6” (Marine Drugs, 2017)
# Target: T1, BRD4 (Homo sapiens, UniProt O60885)
# T1 construct: His-tagged BRD4-BD1 (bromodomain 1)
# Assay: TR-FRET (HTRF) displacement of biotin-labeled peptide ligand from BRD4-BD1; single dose, […]
# Format: biochemical
# Conditions: read-out: Inhibition Rate / 10 μM
row,SMILES,inhibition at 10 µM [%]
1,"O=C1CC[C@]2(O)c3c(ccc(O)c31)-c1ccc(O)c3c1C2[C@@H](O)[C@@H](Cl)[C@H]3O (stereo partly drawn) [compound 1, 12β-Chloro-3,9α,11β,13β,16-pentahydroxy-8,9,10,11,12,13-hexahydro-6(7H)-one]",57.7
2,"O=C1C=Cc2c3c4c(c(O)ccc4c4ccc(O)c1c24)[C@H](O)[C@H](O)[C@H]3O [compound 2, 3,11α,12β,13β,16-Pentahydroxy-11,12-dihydroperylen-6(13H)-one]",88.1
